{"source": "paper PMC9820430", "about": "“New Affordable Methods for Large-Scale Isolation of Major Olive Secoiridoids and Systematic Comparative Study of Their Antiproliferative/Cytotoxic Effect on Multiple Cancer Cell Lines of Different Cancer Origins” (International Journal of Molecular Sciences, 2022)", "assay_in_all_cases": "ATP-based luminescence cell viability assay (ViaLight), 72 h", "set-up_in_all_cases": "species or system human", "key": {"[1]": {"tested_on": "A2058", "protocol": "(§1) The antiproliferative/cytotoxic effects of the selected OOPs on each cell line were assessed by measuring the cellular ATP levels after 72 h treatments using an ATP-based luminescence assay. This assay, initially developed as a tumor chemosensitivity assay, has shown considerable promise as a general in vitro toxicity assay due to its high sensitivity that allows the detection of a small number of cells. Consequently, it can be applied to both cancer cell lines and primary tissue cells. […] The EC50 values were calculated by nonlinear regression (curve fit) using a sigmoidal dose–response equation (Figure 2A and Figure S2).\n(§2) The OOPs tested in this study were first dissolved in an appropriate DMSO volume such as to prepare a final stock solution of 50 mM, which was further used to prepare various compound concentrations in DMSO-based solutions. The final DMSO concentration in the cell culture was maintained constant in all treated groups of any given experiment and never exceeded the value of 0.2% (v/v). For the treatment experiments, cells were plated in 96-well culture plates, in 100 μL of complete medium at a seeding density of 5000–10,000 cells/well—depending on cells’ size and doubling time—and were allowed to adhere overnight (~16 h). The next day, 150 μL of complete medium was added to each well and the cells were treated with various concentrations of OOPs. Each concentration was tested in triplicate and was repeated 2–3 times. To prepare the final concentration solutions, 0.5 μL of a 500× stock of each tested compound in DMSO was added directly into each well in a final volume of 250 μL culture medium and was gently mixed by pipetting. Control wells were prepared under the same experimental conditions by adding only DMSO at a final concentration of 0.2% (v/v). Compounds were not renewed during the entire period of cell exposure. All cells were cultured at 37 °C in a 5% (v/v) CO2 for 24, 48 or 72 h.\n(§3) Briefly, after the treatment with OOPs, the adapted medium was removed from the dish wells and the cells were washed twice with medium without FBS. Then, the C-lysis (LT27-076) was diluted in PBS (1:2) and a volume of 50 μL was added to each well. Cells were incubated with C-lysis for at least 10 min. Finally, an equal volume of lysed cells from each well and ATP monitoring reagent (AMR; LT27-212) was transferred to the wells of a white-walled illuminometer plate (Greiner bio-one; 655074). Cell viability was quantified by measuring luminescence using a multi-mode microplate reader Safire^2 Tecan (software Magellan V6.00 STD.2PC WIN.20000/XP)."}, "[2]": {"tested_on": "AGS", "conditions": "72 h treatment, read-out: EC50 Values of Olive Oil Polyphenols", "protocol": "as §1, §2, §3"}, "[3]": {"tested_on": "Caco-2", "conditions": "72 h treatment, read-out: EC50 Values of Olive Oil Polyphenols", "protocol": "as §1, §2, §3"}, "[4]": {"tested_on": "H1299", "protocol": "as §1, §2, §3"}, "[5]": {"tested_on": "H1437", "protocol": "as §1, §2, §3"}, "[6]": {"tested_on": "HT-29", "conditions": "72 h treatment, read-out: EC50 Values of Olive Oil Polyphenols", "protocol": "as §1, §2, §3"}, "[7]": {"tested_on": "HaCaT", "conditions": "HaCaT (immortal keratinocytes); 72 h treatment; read-out: EC50 Values of Olive Oil Polyphenols", "protocol": "as §1, §2, §3"}, "[8]": {"tested_on": "Hela", "conditions": "72 h treatment, read-out: EC50 Values of Olive Oil Polyphenols", "protocol": "as §1, §2, §3"}, "[9]": {"tested_on": "HepG-2", "conditions": "72 h treatment, read-out: EC50 Values of Olive Oil Polyphenols", "protocol": "as §1, §2, §3"}, "[10]": {"tested_on": "Huh-7", "conditions": "72 h treatment, read-out: EC50 Values of Olive Oil Polyphenols", "protocol": "as §1, §2, §3"}, "[11]": {"tested_on": "MCF 10A", "conditions": "MCF 10A (non-tumorigenic epithelial); 72 h treatment; read-out: EC50 Values of Olive Oil Polyphenols", "protocol": "as §1, §2, §3"}, "[12]": {"tested_on": "MCF-7", "conditions": "72 h treatment, read-out: EC50 Values of Olive Oil Polyphenols", "protocol": "as §1, §2, §3"}, "[13]": {"tested_on": "MDA-MB 231", "protocol": "as §1, §2, §3"}, "[14]": {"tested_on": "ME-180", "conditions": "72 h treatment, read-out: EC50 Values of Olive Oil Polyphenols", "protocol": "as §1, §2, §3"}, "[15]": {"tested_on": "MKN-45", "conditions": "72 h treatment, read-out: EC50 Values of Olive Oil Polyphenols", "protocol": "as §1, §2, §3"}, "[16]": {"tested_on": "MRC-5", "conditions": "MRC-5 (non cancer, lung); 72 h treatment; read-out: EC50 Values of Olive Oil Polyphenols", "protocol": "as §1, §2, §3"}, "[17]": {"tested_on": "PANC-1", "conditions": "72 h treatment, read-out: EC50 Values of Olive Oil Polyphenols", "protocol": "as §1, §2, §3"}, "[18]": {"tested_on": "SK-BR-3", "protocol": "as §1, §2, §3"}, "[19]": {"tested_on": "SK-MEL-28", "protocol": "as §1, §2, §3"}, "[20]": {"tested_on": "WJ-MSC", "conditions": "WJ-MSC (mesenchymal cells); 72 h treatment; read-out: EC50 Values of Olive Oil Polyphenols", "method": "The antiproliferative/cytotoxic effects of the selected OOPs on each cell line were assessed by measuring the cellular ATP levels after 72 h treatments using an ATP-based luminescence assay [73]. […] The EC50 values were calculated by nonlinear regression (curve fit) using a sigmoidal dose–response equation (Figure 2A and Figure S2).\nBriefly, after the treatment with OOPs, the adapted medium was removed from the dish wells and the cells were washed twice with medium without FBS. Then, the C-lysis (LT27-076) was diluted in PBS (1:2) and a volume of 50 μL was added to each well. Cells were incubated with C-lysis for at least 10 min. […] Cell viability was quantified by measuring luminescence using a multi-mode microplate reader Safire^2 Tecan (software Magellan V6.00 STD.2PC WIN.20000/XP)."}}, "data": [{"substance": "ligstroside aglycone [4a,b]", "values": [{"measurement": "EC50", "setting": "[1]; A2058, 72 h treatment, read-out: EC50 Values of Olive Oil Polyphenols", "result": "63.6 ± 1.6", "unit": "µM"}, {"measurement": "Selectivity index SI (HaCaT)", "setting": "[1]; EC50 HaCaT / EC50 A2058", "result": 0.9}, {"measurement": "Selectivity index SI (NHDF)", "setting": "[1]; EC50 NHDF / EC50 A2058", "result": 0.7}, {"measurement": "EC50", "setting": "[2]", "result": "48.5 ± 2.5", "unit": "µM"}, {"measurement": "EC50", "setting": "[3]", "result": "24.4 ± 1.6", "unit": "µM"}, {"measurement": "Selectivity index SI (MRC-5)", "setting": "[4]; EC50 MRC-5 / EC50 H1299", "result": 0.2}, {"measurement": "EC50", "setting": "[4]; H1299, 72 h treatment, read-out: EC50 Values of Olive Oil Polyphenols", "result": "83.3 ± 1.9", "unit": "µM"}, {"measurement": "Selectivity index SI (MRC-5)", "setting": "[5]; EC50 MRC-5 / EC50 H1437", "result": 1.1}, {"measurement": "EC50", "setting": "[5]; H1437, 72 h treatment, read-out: EC50 Values of Olive Oil Polyphenols", "result": "11.6 ± 1.1", "unit": "µM"}, {"measurement": "EC50", "setting": "[6]", "result": "98.2 ± 8.4", "unit": "µM"}, {"measurement": "EC50", "setting": "[7]", "result": "55.6 ± 1", "unit": "µM"}, {"measurement": "EC50", "setting": "[8]", "result": "47.6 ± 1.8", "unit": "µM"}, {"measurement": "EC50", "setting": "[9]", "result": "45.8 ± 3.4", "unit": "µM"}, {"measurement": "EC50", "setting": "[10]", "result": "36 ± 0.9", "unit": "µM"}, {"measurement": "EC50", "setting": "[11]", "result": "55.8 ± 2.7", "unit": "µM"}, {"measurement": "EC50", "setting": "[12]", "result": "61.8 ± 1.2", "unit": "µM"}, {"measurement": "Selectivity index SI (MCF 10A)", "setting": "[13]; EC50 MCF 10A / EC50 MDA-MB 231", "result": 1.9}, {"measurement": "EC50", "setting": "[13]; MDA-MB 231, 72 h treatment, read-out: EC50 Values of Olive Oil Polyphenols", "result": "31.6 ± 2.7", "unit": "µM"}, {"measurement": "EC50", "setting": "[14]", "result": "51.1 ± 2.2", "unit": "µM"}, {"measurement": "EC50", "setting": "[15]", "result": "24 ± 1.2", "unit": "µM"}, {"measurement": "EC50", "setting": "[16]", "result": "13.2 ± 0.9", "unit": "µM"}, {"measurement": "EC50", "setting": "[17]", "result": "45.7 ± 1.4", "unit": "µM"}, {"measurement": "Selectivity index SI (MCF 10A)", "setting": "[18]; EC50 MCF 10A / EC50 SK-BR-3", "result": 2.6}, {"measurement": "EC50", "setting": "[18]; SK-BR-3, 72 h treatment, read-out: EC50 Values of Olive Oil Polyphenols", "result": "21.5 ± 2.5", "unit": "µM"}, {"measurement": "Selectivity index SI (HaCaT)", "setting": "[19]; EC50 HaCaT / EC50 SK-MEL-28", "result": 2.5}, {"measurement": "Selectivity index SI (NHDF)", "setting": "[19]; EC50 NHDF / EC50 SK-MEL-28", "result": 2.1}, {"measurement": "EC50", "setting": "[19]; SK-MEL-28, 72 h treatment, read-out: EC50 Values of Olive Oil Polyphenols", "result": "22.2 ± 1.2", "unit": "µM"}, {"measurement": "EC50", "setting": "[20]", "result": "39.3 ± 3.8", "unit": "µM"}]}]}
